How the values were obtained:
[1] = system: BFU-E; assay: Colony formation assay, CD34+/CD38- and CD34+/CD33- enriched cord blood cells: BFU-E; type: cell-based, human; conditions: 2 U/ml Epo, 5% O2, 14 days; vs untreated controls under same conditions
Text: CD34^+/CD38^− cells were isolated from cord blood LDMNC using the STEMSEP™ system (StemCell Technologies Inc., Vancouver, Canada). The CD34^+/CD38^− cell purity was increased from <0.1% in unfractionated LDMNC to ˜81% CD34^+/CD38^− cells post fractionation as determined by flow cytometry. To obtain the CD34^+/CD33^− cells CD34^+ cells were first isolated from cord blood LDMNC using the CEPRATE™ LC system (CellPro Inc., Bothell, Wash.). The CD34^+/CD33^− fraction was then enriched to ˜94% purity by flow fluorescence activated cell sorting (FACS; Epics Elite, Coulter Electronics, Hialeah, Fla.). The colony formation assay was conducted as described in Examples 1-4, except that 1×10^3 CD34^+ cells/ml were plated versus 1×10^3 unfractionated cord blood LDMNC/ml normally plated. Mean fold increase in BFU-E and CFU-E progenitor number produced from CD34^+ CD38^− enriched (a; n=2) and CD34^+ CD33^− enriched (b; n=1) cord blood LDMNC stimulated by 1.0 mg/ml HAo (15.6 μM) or HEMOLINK™ (15.6 μM), 100 μM hemin 250 μM FeCl3 in the presence of 2 U/ml Epo is shown in FIG. 13. Cultures were maintained at 5% O2 for 14 days. The results are expressed relative cells treated only with the respective vehicles and cultured under the same conditions.

[2] = system: BFU-E; assay: Colony formation assay, adult peripheral blood LDMNC: BFU-E; type: cell-based, human; conditions: for fold increase in BFU-E, adult blood, 0.2 U/ml Epo: ~20% O2, compared to untreated controls (no addition) at 0.2 U/ml Epo
Description: Blood was collected with informed consent from the antecubital vein of healthy adult human volunteers into vacutainers containing 143 USP U/ml sodium heparin. Low density mononuclear cells (LDMNC) were isolated by centrifugation over a density gradient as described in Example 1. Plastic adherent cells were removed by an overnight incubation in a tissue culture flask and the non-adherent cells were placed directly in a CFA. Conditions for the CFA are similar to those described in Examples 1-4.
The mean fold increase in adult blood BFU-E, CFU-E and CFU-GM progenitor number produced by 1.0 mg/ml HAo (15.6 μM) or HEMOLINK™ (15.6 μM), 100 μM hemin or 250 μM FeCl3 is shown in FIG. 9 (n=3). Cultures were maintained at ambient oxygen tensions (˜20% O2) for 14 days. The fold increase in colonies is expressed relative to control cells treated only with the respective vehicles. […] The magnitude of this increase was greater for adult than cord blood LDMNC.
The mean fold increase in adult blood BFU-E, CFU-E and CFU-GM progenitor number at 5% O2 is shown in FIG. 10 with the same additives. Results are expressed relative to control cells treated only with the respective vehicles and cultured at ambient oxygen tensions (˜20% O2). Reduced oxygen tensions (5% O)2 enhanced the growth of BFU-E which was further increased by the addition of HAo, HEMOLINK™, hemin or FeCl3. All agents stimulated a similar increase in BFU-E number (˜9-11-fold) at 5% O2 compared to untreated control cells at ambient oxygen tensions.
Mean fold increase in adult blood BFU-E, CFU-E and CFU-GM progenitor number in the presence of reduced Epo (0.2 U/ml) (n=3) at 20% O2 is shown in FIG. 11 with and without (no addition) the additives used in FIG. 9. Results are expressed relative to control cells at 2 U/ml Epo treated only with the respective vehicles (solid line at fold expansion=1.0). […] As with cord blood, CFU-GM numbers were unaffected by reductions in Epo. The addition of HAo or HEMOLINK™ to CFAs containing 0.2 U/ml Epo stimulated ˜4.5- and ˜3.5-fold increases in BFU-E and CFU-E, respectively, compared to untreated controls (no addition), restoring the progenitor number to that obtained at 2 U/ml Epo. Hemin stimulated the greatest increase in BFU-E and CFU-E (˜9- and ˜6-fold, respectively) at 0.2 U/ml Epo versus the untreated controls (no addition). FeCl3 stimulated only a ˜2-fold increase in erythroid progenitor number at 0.2 U/ml Epo.
Mean fold increase in adult blood BFU-E, CFU-E and CFU-GM progenitor number at 5% O2 in the presence of reduced Epo (0.2 U/ml) (n=3) is shown in FIG. 12 with and without the additives used in FIG. 9. […]

| Molecule | increase in BFU-E from CD34+ enriched progenitor populations (in words) [1] | fold increase in BFU-E, adult blood, 0.2 U/ml Epo [2] [fold] | fold increase in BFU-E, adult blood, ambient O2 ([2]; 2 U/ml Epo, ambient O2, 1.0 mg/ml HAo or HEMOLINK, 100 μM hemin, 250 μM FeCl3, vs vehicle controls) [fold] |
| --- | --- | --- | --- |
| HEMOLINK™: chemically crosslinked hemoglobin prepared by treating human hemoglobin with a polyaldehyde (O-raffinose) | stimulated an increase in BFU-E | ~4.5 |  |
| [Cl][Fe]([Cl])[Cl] [FeCl3] | to a lesser extent |  | < 3 |
| HAo: adult human hemoglobin obtained from red blood cells and purified by displacement chromatography; uncross linked product | stimulated an increase in BFU-E | ~4.5 |  |
| C=CC1=C(C)C2=Cc3c(C=C)c(C)c4[n]3[Fe-2]35([Cl])[n]6c(c(C)c(CCC(=O)O)c6=CC6=[N+]3C(=C4)C(C)=C6CCC(=O)O)=CC1=[N+]25 [hemin] | stimulated an increase in BFU-E | ~9 |  |

From patent publication US20020120098A1, “Enhanced stimulation of erythropoiesis” (priority 1996, published 2002)
